{
  "source": "patent US6608107B2",
  "about": "“Methods and compositions to treat conditions associated with neovascularization” (Wackvom Limited, priority 2000, dated 2003)",
  "key": {"[1]": {"test": "Organ distribution of gossypol enantiomers", "settings": "in vivo"}, "endothelial cells": {"system": "endothelial cells", "test": "Endothelial Cell Assay (inhibition of endothelial cell growth)", "format": "cell-based", "settings": "for Endothelial cell assay reading, samples 1-5: raw reading per sample", "procedure": "The assays were carried out according to the procedures of Connally, et al. (1986) Anal. Biochem. 152:136-4 with modifications (Liang and Wong (1999) ANGIOGENESIS: FROM THE MOLECULAR TO INTEGRATIVE PHARMACOLOGY edited by Maradoudakis, Kluwer Academic/Plenum. Publishers, New York)."}},
  "note": "Where “and” joins values, the source holds several entries; their conditions need not be identical. Equal entries are not always repeated.",
  "data": [
    {"smiles": "Cc1cc2c(C(C)C)c(O)c(O)c(C=O)c2c(O)c1-c1c(C)cc2c(C(C)C)c(O)c(O)c(C=O)c2c1O", "note": "[(+) gossypol]", "values": [
      {"measurement": "organs in which the enantiomer concentrates", "setting": "[1]", "value": "concentrates in the kidneys"}
    ]},
    {"smiles": "Cc1cc2c(C(C)C)c(O)c(O)c(C=O)c2c(O)c1-c1c(C)cc2c(C(C)C)c(O)c(O)c(C=O)c2c1O", "note": "[(−) gossypol]", "values": [
      {"measurement": "organs in which the enantiomer concentrates", "setting": "[1]", "value": "concentrates in the major organs such as the heart, spleen and muscles"}
    ]},
    {"smiles": "Cc1cc2c(C(C)C)c(O)c(O)c(C=O)c2c(O)c1-c1c(C)cc2c(C(C)C)c(O)c(O)c(C=O)c2c1O", "note": "[Gossypol Acetate, gossypol acetate]", "values": [
      {"measurement": "Inhibition", "setting": "endothelial cells; Gossypol Acetate, first column (concentration not given)", "value": 46.2, "unit": "%"},
      {"measurement": "Inhibition", "setting": "endothelial cells; Gossypol Acetate, second column (concentration not given)", "value": 21.3, "unit": "%"},
      {"measurement": "Endothelial cell assay reading, samples 1-5", "setting": "endothelial cells; Gossypol Acetate", "value": "0.3289 and 0.3165 and 0.3065 and 0.3035 and 0.3269"}
    ]},
    {"smiles": "Cc1cc2c(C(C)C)c(O)c(O)c(C=O)c2c(O)c1-c1c(C)cc2c(C(C)C)c(O)c(O)c(C=O)c2c1O", "note": "[Gossypol]", "values": [
      {"measurement": "Endothelial cell assay reading, samples 1-5", "setting": "endothelial cells; Concentration of Gossypol: 25 mM", "value": "0.0112 and 0.0078 and 0.0057 and 0.0068 and 0.0076"},
      {"measurement": "inhibition at 25000 µM", "setting": "endothelial cells; Endothelial cell, Concentration of Gossypol: 25 mM", "value": 97.6, "unit": "%"}
    ]}
  ]
}
